The values that follow come from ChEMBL document CHEMBL5725277, “Pyrazine derivatives as CB2 receptor agonists” (2016).

The target in experiment [1] is Cannabinoid receptor 1 (Homo sapiens, UniProt P21554). The experiment in a line: (§1) cAMP Assay: CHO cells expressing human CB1 or CB2 receptors are seeded 17-24 hours prior to the experiment 50.000 cells per well in a black 96 well plate with flat clear bottom (Corning Costar #3904) in DMEM (Invitrogen No. 31331), 1xHT supplement, with 10% fetal calf serum and incubated at 5% CO2 and 37° C. in a humidified incubator. The growth medium was exchanged with Krebs Ringer Bicarbonate buffer with 1 mM IBMX and incubated at 30° C. for 30 min. Compounds were added to a final assay volume of 100 ul and incubated for 30 min at 30° C. Using the cAMP-Nano-TRF detection kit the assay (Roche Diagnostics) was stopped by the addition of 50 ul lysis reagent (Tris, NaCl, 1.5% Triton X100, 2.5% NP40, 10% NaN3) and 50 ul detection solutions (20 uM mAb Alexa700-cAMP 1:1, and 48 uM Ruthenium-2-AHA-cAMP) and shaken for 2 h at room temperature. The time-resolved energy transfer is measured by a TRF reader (Evotec Technologies GmbH), equipped with a ND:YAG laser as excitation source. The plate is measured twice with the excitation at 355 nm and at the emission with a delay of 100 ns and a gate of 100 ns, total exposure time 10 s at 730 (bandwidth 30 nm) or 645 nm (bandwidth 75 nm), respectively. The FRET signal is calculated as follows: FRET=T730-Alexa730-P (T645-B645) with P=Ru730-B730/Ru645-B645, where T730 is the test well measured at […], T645 is the test well measured at 645 nm, B730 and B645 are the buffer controls at 730 nm and 645 nm, respectively. cAMP content is determined from the function of a standard curve spanning from 10 uM to 0.13 nM cAMP. EC50 values were determined using Activity Base analysis (ID Business Solution, Limited). The EC50 values for a wide range of cannabinoid agonists generated from this assay were in agreement with the values published in the scientific literature.
Chain of Cannabinoid receptor 1 (P21554 whole entry): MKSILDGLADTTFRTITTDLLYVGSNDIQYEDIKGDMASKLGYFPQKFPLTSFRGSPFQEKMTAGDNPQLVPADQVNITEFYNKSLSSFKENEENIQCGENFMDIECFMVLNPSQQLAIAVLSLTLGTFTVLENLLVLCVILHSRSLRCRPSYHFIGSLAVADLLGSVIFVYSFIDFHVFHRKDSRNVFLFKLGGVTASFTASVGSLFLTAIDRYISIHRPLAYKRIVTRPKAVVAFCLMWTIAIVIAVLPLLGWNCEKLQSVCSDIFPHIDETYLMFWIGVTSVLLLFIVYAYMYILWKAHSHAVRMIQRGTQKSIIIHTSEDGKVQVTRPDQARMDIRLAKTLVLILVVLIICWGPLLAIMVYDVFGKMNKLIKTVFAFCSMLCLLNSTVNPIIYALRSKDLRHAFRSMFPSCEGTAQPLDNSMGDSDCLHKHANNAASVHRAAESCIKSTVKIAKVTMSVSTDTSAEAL

The target in experiment [2] is Cannabinoid receptor 2 (Homo sapiens, UniProt P34972). The description is as §1.
Chain of Cannabinoid receptor 2 (P34972 whole entry): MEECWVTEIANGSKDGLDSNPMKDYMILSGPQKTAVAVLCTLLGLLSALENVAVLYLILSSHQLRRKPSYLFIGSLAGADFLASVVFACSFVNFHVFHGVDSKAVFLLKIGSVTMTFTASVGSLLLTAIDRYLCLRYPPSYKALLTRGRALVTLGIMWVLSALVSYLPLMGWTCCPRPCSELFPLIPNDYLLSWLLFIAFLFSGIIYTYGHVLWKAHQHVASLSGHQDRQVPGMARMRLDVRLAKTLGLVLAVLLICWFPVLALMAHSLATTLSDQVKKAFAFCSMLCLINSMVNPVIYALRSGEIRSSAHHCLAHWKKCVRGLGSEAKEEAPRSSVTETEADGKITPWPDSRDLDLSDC

A value given as a limit tells only on which side of the number the result lay.

With `NC(=O)[C@@H]1CC(F)(F)CN1C(=O)c1cnc(C2CC2)c(OCC2CC2)n1`, the EC50 (in general, the concentration that produces a half-maximal response) is over 10000 nM in experiment [1] and 23.5 nM in experiment [2].

For the compound `CC1(C)CCCN1C(=O)c1cnc(C2CC2)c(OCC2CC2)n1`, the EC50 in experiment [1] was over 10000 nM; in experiment [2], 11.2 nM.

As to `CCN(C(=O)c1cnc(N2CC(F)(F)C2)c(OCC2CC2)n1)C(C)C`, the figures for the EC50 in experiment [1] and in experiment [2] were over 10000 nM and 19.9 nM, respectively.
